From patent publication US20030229066A1, “Novel heterocyclic urea derivatives and their use as dopamine D3 receptor ligands” (priority 2001, published 2003)

What follows are compounds tested against T1, cloned human dopamine D3 receptors (Homo sapiens, UniProt P35462) (assay: [N-Methyl-3H]Spiroperidol binding to cloned human dopamine D3 receptors). Conditions: not given.
T1 construct: expressed in transfected cells
T1 sequence (P35462 whole entry): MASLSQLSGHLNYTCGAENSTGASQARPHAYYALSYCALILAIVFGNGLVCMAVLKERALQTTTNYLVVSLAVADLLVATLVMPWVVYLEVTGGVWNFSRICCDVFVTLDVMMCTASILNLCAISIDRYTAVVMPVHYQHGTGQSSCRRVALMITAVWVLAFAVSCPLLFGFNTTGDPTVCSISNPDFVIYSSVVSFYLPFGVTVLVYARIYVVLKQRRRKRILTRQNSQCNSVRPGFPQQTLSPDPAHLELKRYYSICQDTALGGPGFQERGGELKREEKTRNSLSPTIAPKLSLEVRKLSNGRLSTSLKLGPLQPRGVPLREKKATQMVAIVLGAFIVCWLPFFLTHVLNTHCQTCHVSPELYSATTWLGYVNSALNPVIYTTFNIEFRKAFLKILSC
Source text: [N-Methyl-^3H]Spiroperidol Binding to Cloned Human Dopamine D3 Receptors
This assay measures the in vitro activity of compounds on cloned human dopamine (D3) receptors and predicts the direct dopamine-blocking properties of putative neuropsychiatric agents at human dopamine D3 receptors.
The D3 gene was isolated from a human striatal cDNA library (Stratagene). The gene was sequenced and sub-cloned into the expression vector RC/RSV (Invitrogen). CHO (Chinese Hamster Ovary) cells were stably transfected with 10 μg of the D3/RSV plasmid using the DOTAP method from Boehringer Mannheim and 72 clones that were G418 resistant were isolated. Using mRNA and binding displacement data a single high expressing clone was identified. This clone was then grown in large batches for the purpose of developing a 96 well format assay.
The cells are harvested into 250 ml centrifuge tubes with 100 volumes of cold phosphate buffered saline (PBS) and spun down (1200×G for 10 min at 4° C.). The medium is removed and 100 ml PBS are added to each centrifuge tube, cells are resuspened and spun down again. The PBS is removed and the final pellet is homogenized in an appropriate volume of 10% DMSO with a polytron on ice at a medium setting.
For Kj determinations: [^3H]NMSP is made up to a concentration of 2.7 nM in buffer 2b, such that when 150 μl is added to each tube a final concentration of 0.4 nM is attained in the 1 ml assay. Samples of total CPM added are taken for each experiment to calculate the total ligand concentration.
5. S(-)-Eticlopride is obtained from Research Biochemicals International (RBI catalog number E-101). A refrigerated stock (good for up to a month) solution of S(-)-eticlopride is made at a concentration of 30 μM in buffer 2b. One hundred microliters are added to 3 wells for the determination of nonspecific binding (this yields a final concentration of 3 μM in the 1 ml assay).
For most assays, a 100 μM stock solution of the test compound is made up in a suitable solvent (usually <0.1% acetic acid) and serially diluted with buffer 2b, such that when 100 μl of drug is combined with the total 1 ml assay, final concentrations ranging from 10^−5-10^−8 M are attained. Characteristically eight concentrations are studied for each assay; however, higher or lower concentrations may be used, depending on the potency of the drug.
The 96-Well Packard Unifilters GF/B are incubated for >1 h at 25° C. in 0.1% polyethylamine (from 3,b). The cold tissue is added last and mixed on a orbital shaker for a few seconds and is then incubated at 37° C. for 30 min in a shaking water bath. The assay is stopped by rapid filtration through Packard Unifilter plates. The filter membranes are then washed with 15 ml of ice-cold 0.05 M Tris buffer. The filters are then dried (˜15 min under a heat lamp or incubated for 15 min in a 60° C. oven) and a bottom seal is applied. Then 40 μl of Packard Microscint 20 scintillation cocktail is added and a permanent topseal (Type P) is applied and heat sealed. The plates are then shaken on an orbital shaker for 1 h and placed in the Packard Topcount and counted for at least 5 minutes for each point.
Specific binding is defined as the difference between total binding and the binding in the presence of 3 μM S-(-)-eticlopride. Total binding is approximately 10% of the total added ligand. Cheng-Prusoff determination (Kj's) are performed using Prism software using a one-site competition curve analysis where the top and the bottom of the non-linear regression are held constant at 0% and 100% percent inhibition. The percent inhibition at each drug concentration is the mean of duplicate determinations.
Compound `CC(=O)c1ccc(NC(=O)NCCCCN2C3CCC2CC(c2noc4cc(F)ccc24)C3)cc1` (centres unmarked) [compound 817228] has a Ki of 179 nM.
For `O=C(NCCCCN1C2CCC1CC(c1noc3cc(F)ccc13)C2)Nc1ccccc1F` (centres unmarked) [compound 817229], the Ki was 365 nM.
Work on `O=C(NCCCCN1C2CCC1CC(c1noc3cc(F)ccc13)C2)Nc1ccc(-c2ccccc2)cc1` (centres unmarked) [compound 817230] yielded a Ki of 182 nM.
`O=C(NCCCCN1C2CCC1CC(c1noc3cc(F)ccc13)C2)Nc1cccc(C(F)(F)F)c1` (centres unmarked) [compound 817231] gave a Ki of 433 nM.
In the case of `Cc1ccc(NC(=O)NCCCCN2C3CCC2CC(c2noc4cc(F)ccc24)C3)cc1` (centres unmarked) [compound 817234], the Ki is reported as 256 nM.
Compound `O=C(NCCCCN1CCN(c2n[nH]c3ccsc23)CC1)Nc1ccc(C(F)(F)F)cc1` [compound 825154] has a Ki of 35.5 nM.
Compound `O=C(NCCCCN1CCN(c2n[nH]c3ccsc23)CC1)Nc1ccc(OC(F)(F)F)cc1` [compound 825155] has a Ki of 84.8 nM.
`CCOc1ccc(NC(=O)NCCCCN2CCN(c3n[nH]c4ccsc34)CC2)cc1` [compound 825156] was tested, and the Ki was 63.2 nM.
Work on `O=C(NCCCCN1CCN(c2nn(C(=O)Nc3ccccc3C(F)(F)F)c3ccsc23)CC1)Nc1ccccc1C(F)(F)F` [compound 825160] yielded a Ki of 202 nM.
`O=C(NCCCCN1CCN(c2nn(C(=O)Nc3ccc(OC(F)(F)F)cc3)c3ccsc23)CC1)Nc1ccc(OC(F)(F)F)cc1` [compound 825167] showed a Ki of 374 nM.
Compound `CCOc1ccc(NC(=O)NCCCCN2CCN(c3nn(C(=O)Nc4ccc(OCC)cc4)c4ccsc34)CC2)cc1` [compound 825168] has a Ki of 47.4 nM.
With `O=C(NCCCCN1CCN(c2cn(C(=O)Nc3ccc(F)cc3)c3ccsc23)CC1)Nc1ccc(F)cc1` [compound 825170] the Ki was 136 nM.
For `O=C(NCCCCN1CCN(c2nn(C(=O)Nc3ccc(F)cc3F)c3ccsc23)CC1)Nc1ccc(F)cc1F` [compound 825171], the Ki was 496 nM.
With `O=C(NCCCCN1CCCN(c2csc3cc(F)ccc23)CC1)Nc1ccc(Cl)c(Cl)c1` [compound 829191] the Ki was 43 nM.
`Cc1cccc(NC(=O)NCCCCN2CCCN(c3csc4cc(F)ccc34)CC2)c1` [compound 829192] gave a Ki of 4.03 nM.
In the case of `O=C(NCCCCN1CCCN(c2csc3cc(F)ccc23)CC1)Nc1cccc(Cl)c1` [compound 829193], the Ki is reported as 7.86 nM.
Compound `O=C(NCCCCN1CCCN(c2csc3cc(F)ccc23)CC1)Nc1ccc(C(F)(F)F)cc1` [compound 829195] has a Ki of 21.1 nM.
`O=C(NCCCCN1CCCN(c2csc3cc(F)ccc23)CC1)Nc1cccc(Br)c1` [compound 829196] gave a Ki of 10.9 nM.
Compound `O=C(NCCCCN1CCCN(c2csc3cc(F)ccc23)CC1)Nc1ccc(OC(F)(F)F)cc1` [compound 829197] has a Ki of 34.8 nM.
In the case of `O=C(NCCCCN1CCCN(c2csc3cc(F)ccc23)CC1)Nc1cc(C(F)(F)F)cc(C(F)(F)F)c1` [compound 829198], the Ki is reported as 65.6 nM.
Work on `O=C(NCCCCN1CCCN(c2csc3cc(F)ccc23)CC1)Nc1ccc(Cl)c(C(F)(F)F)c1` [compound 829200] yielded a Ki of 47.8 nM.
With `O=C(NCCCCN1CCCN(c2csc3cc(F)ccc23)CC1)Nc1cc(Cl)cc(Cl)c1` [compound 829202] the Ki was 16.6 nM.
`Cc1ccc(NC(=O)NCCCCN2CCCN(c3csc4cc(F)ccc34)CC2)cc1` [compound 829203] showed a Ki of 5.64 nM.
In the case of `CSc1ccc(NC(=O)NCCCCN2CCCN(c3csc4cc(F)ccc34)CC2)cc1` [compound 829204], the Ki is reported as 5 nM.
Work on `CC(=O)c1cccc(NC(=O)NCCCCN2CCCN(c3csc4cc(F)ccc34)CC2)c1` [compound 829206] yielded a Ki of 2.5 nM.
Work on `CC(C)c1ccc(NC(=O)NCCCCN2CCCN(c3csc4cc(F)ccc34)CC2)cc1` [compound 829207] yielded a Ki of 141 nM.
Compound `COc1cc(NC(=O)NCCCCN2CCCN(c3csc4cc(F)ccc34)CC2)cc(OC)c1OC` [compound 829210] has a Ki of 1.99 nM.
In the case of `O=C(NCCCCN1CCCN(c2csc3cc(F)ccc23)CC1)Nc1cc(C(F)(F)F)ccc1F` [compound 829211], the Ki is reported as 16 nM.
Work on `O=C(NCCCCN1CCCN(c2csc3cc(F)ccc23)CC1)Nc1c(F)cccc1C(F)(F)F` [compound 829212] yielded a Ki of 49.9 nM.
For `O=C(NCCCCN1CCCN(c2csc3cc(F)ccc23)CC1)Nc1ccc(F)c(C(F)(F)F)c1` [compound 829213], the Ki was 181 nM.
In the case of `O=C(NCCCCN1CCCN(c2csc3cc(F)ccc23)CC1)Nc1ccc(Cl)cc1` [compound 829214], the Ki is reported as 14.1 nM.
With `O=C(NCCCCN1CCCN(c2csc3cc(F)ccc23)CC1)Nc1ccc(F)cc1` [compound 829215] the Ki was 6.59 nM.
In the case of `O=C(NCCCCN1CCCN(c2csc3cc(F)ccc23)CC1)Nc1ccccc1F` [compound 829216], the Ki is reported as 0.178 nM.

Same assay, conditions: Table III; read-out: d3Ki
Work on `O=C(NCCCCN1CCC(c2noc3ccsc23)CC1)NC12CC3CC(CC(C3)C1)C2` [compound 816210] yielded a Ki of 187 nM.
For `CC(=O)c1ccc(NC(=O)NCCCCN2CCN(c3c(-c4ccccc4)sc4cc(F)ccc34)CC2)cc1` [compound 816226], the Ki was 184 nM.
In the case of `O=C(NCCCCN1CCN(c2c(-c3ccccc3)sc3cc(F)ccc23)CC1)NC1CCCCC1` [compound 816232], the Ki is reported as 5.94 nM.
With `O=C(NCCCCN1CCC(c2noc3ccsc23)CC1)Nc1ccc(F)c([N+](=O)[O-])c1` [compound 816557] the Ki was 20.7 nM.
Compound `O=C(NCCCCN1CCC(c2noc3ccsc23)CC1)Nc1ccc(Cl)c([N+](=O)[O-])c1` [compound 816559] has a Ki of 13.1 nM.
Compound `O=C(NCCCCN1CCC(c2noc3ccsc23)CC1)Nc1ccc([N+](=O)[O-])cc1` [compound 816562] has a Ki of 6.99 nM.
With `CCCCOc1ccc(NC(=O)NCCCCN2CCC(c3noc4ccsc34)CC2)cc1` [compound 816564] the Ki was 55.9 nM.
`O=C(NCCCCN1CCC(c2noc3ccsc23)CC1)Nc1ccc(Cl)cc1Cl` [compound 816566] showed a Ki of 95.1 nM.
For `COc1ccc(NC(=O)NCCCCN2CCC(c3noc4ccsc34)CC2)c(OC)c1` [compound 816567], the Ki was 73.8 nM.
`CCOc1ccccc1NC(=O)NCCCCN1CCC(c2noc3ccsc23)CC1` [compound 816764] gave a Ki of 85.4 nM.
Work on `O=C(NCCCCN1CCC(c2noc3ccsc23)CC1)Nc1c(F)cccc1F` [compound 816766] yielded a Ki of 42.9 nM.
`COc1ccc(NC(=O)NCCCCN2CCC(c3noc4ccsc34)CC2)c(OC)c1` [compound 816767] was tested, and the Ki was 60.1 nM.
`O=C(NCCCCN1CCC(c2noc3ccsc23)CC1)Nc1ccc(Cl)cc1Cl` [compound 816769] gave a Ki of 57.8 nM.
In the case of `COc1cc(Cl)c(NC(=O)NCCCCN2CCC(c3noc4ccsc34)CC2)c(OC)c1` [compound 816770], the Ki is reported as 28.2 nM.
Compound `COc1c(Cl)cccc1NC(=O)NCCCCN1CCC(c2noc3ccsc23)CC1` [compound 816771] has a Ki of 74.1 nM.
Compound `CCOc1ccccc1NC(=O)NCCCCN1CCC(c2noc3ccsc23)CC1` [compound 816876] has a Ki of 46.9 nM.
`O=C(NCCCCN1CCC(c2noc3ccsc23)CC1)Nc1c(F)cccc1F` [compound 816878] gave a Ki of 33.8 nM.
Work on `COc1ccc(NC(=O)NCCCCN2CCC(c3noc4ccsc34)CC2)c(OC)c1` [compound 816879] yielded a Ki of 47 nM.
In the case of `O=C(NCCCCN1CCC(c2noc3ccsc23)CC1)Nc1cc(C(F)(F)F)cc(C(F)(F)F)c1` [compound 816881], the Ki is reported as 23.8 nM.
Compound `COc1cc(Cl)c(NC(=O)NCCCCN2CCC(c3noc4ccsc34)CC2)c(OC)c1` [compound 816882] has a Ki of 58.6 nM.
`COc1c(Cl)cccc1NC(=O)NCCCCN1CCC(c2noc3ccsc23)CC1` [compound 816883] was tested, and the Ki was 35.5 nM.
`O=C(NCCCCN1CCC(c2noc3ccsc23)CC1)NCc1ccc(Cl)cc1Cl` [compound 816968] showed a Ki of 24.2 nM.
Compound `COc1ccc(NC(=O)NCCCCN2CCC(c3noc4ccsc34)CC2)c(OC)c1` [compound 818310] has a Ki of 133 nM.
